Where two headings read alike, the source gives them in different places.
How the values were obtained:
[1] = tested on: MS751 cells; assay: MTT cell proliferation assay, MS751 cells; format: cell-based, human; conditions: incubation approximately 64-72 hours, read-out: MTT Assay IC50, MS 751
Experimental: (§1) The MTT cell proliferation assay was used to study the cytotoxic properties of the compounds. The assay was performed according to the method described by Roche Molecular Biochemicals, with minor modifications. The assay is based on the cleavage of the tetrazolium salt, MTT, in the presence of an electron-coupling reagent. The water-insoluble formazan salt produced must be solubilized in an additional step. Cells grown in a 96-well tissue culture plate were incubated with the MTT solution for approximately 4 hours. After this incubation period, a water-insoluble formazan dye formed. After solubilization, the formazan dye was quantitated using a scanning multi-well spectrophotometer (ELISA reader). […] The cells were seeded at 5,000-10,000 cells in each well of 96-well plate in 100 μL of fresh culture medium and were allowed to attach overnight. The stock solutions of the compounds were diluted in […] cell culture medium to obtain eight concentrations of each test compound, ranging from 1 nM to 30 μM. […] All optical densities were measured at 490 nm using a Vmax Kinetic Microplate Reader (Molecular Devices). In most cases, the assay was performed in duplicate and the results were presented as a mean percent inhibition to the negative control±SE. The following formula was used to calculate the percent of inhibition: Inhibition (%)=(1-(ODo/OD))×100.
(§2) The compounds were tested against MS751, Z138 and 3T3 cells. The MS751 cell line is derived from a metastasis to lymph node of human cervix from a patient diagnosed with squameous cell carcinoma of the cervix. The Z138 cell line is a mature B-cell acute lymphoblastic leukemia cell line derived from a patient with chronic lumphocytic leukemia. 3T3 cells are standard fibroblast cells; they were originally isolated from Swiss mouse embryo tissue.

[2] = tested on: Z138 cells; assay: MTT cell proliferation assay, Z138 cells; format: cell-based, human
Experimental: as §1, §2

[3] = tested on: 3T3 cells; assay: MTT cell proliferation assay, 3T3 cells; format: cell-based, mouse; conditions: 3T3 fibroblast cells, incubation approximately 64-72 hours
Experimental: as §1, §2

[4] = Homo sapiens, Z-138, incubation approximately 64-72 hours
[5] = incubation approximately 64-72 hours, read-out: MTT Assay IC50, Z-138

## Nc1ccc(/C=C/C(=O)NCc2cnc(-c3ccc(-c4ccc(C(=O)N5CC(F)C5)cc4)cc3C(F)(F)F)o2)cn1 [Compound A021, (E)-3-(6-aminopyridin-3-yl)-N-((2-(4′-(3-fluoroazetidine-1-carbonyl)-3-(trifluoromethyl)-[1,1′-biphenyl]-4-yl)oxazol-5-yl)methyl)acrylamide]
[1]; Homo sapiens
  IC50: < 1000 nM
[2]; [4]
  IC50: < 1000 nM
[3]; Mus musculus, NIH3T3
  IC50: 1000 to 5000 nM

## Nc1ccc(/C=C/C(=O)NCc2cnc(-c3ccc(-c4ccc(C(=O)N5CC(F)(F)C5)cc4F)cc3C(F)(F)F)o2)cn1 [Compound A022, (E)-3-(6-aminopyridin-3-yl)-N-((2-(4′-(3,3-difluoroazetidine-1-carbonyl)-2′-fluoro-3-(trifluoromethyl)-[1,1′-biphenyl]-4-yl)oxazol-5-yl)methyl)acrylamide]
[1]; Homo sapiens
  IC50: < 1000 nM
[2]; [4]
  IC50: < 1000 nM
[3]; Mus musculus, NIH3T3
  IC50: < 1000 nM

## Cc1c(CNC(=O)/C=C/c2ccc(N)nc2)sc(-c2ccc(-c3ccc(C(=O)N4CCC(F)(F)CC4)cc3)cc2-c2ccc(F)cc2)c1C [Compound A023, (E)-3-(6-aminopyridin-3-yl)-N-((5-(4-(4,4-difluoropiperidine-1-carbonyl)-4″-fluoro-[1,1′:3′,1″-terphenyl]-4′-yl)-3,4-dimethylthiophen-2-yl)methyl)acrylamide]
[1]; Homo sapiens
  IC50: 1000 to 5000 nM
[2]; [4]
  IC50: < 1000 nM
[3]; Mus musculus, NIH3T3
  IC50: > 10000 nM

## Nc1ccc(/C=C/C(=O)NCc2ncc(-c3ccc(-c4ccc(C(=O)N5CC(F)(F)C5)cc4)cc3C(F)(F)F)o2)cn1 [Compound A024, (E)-3-(6-aminopyridin-3-yl)-N-((5-(4′-(3,3-difluoroazetidine-1-carbonyl)-3-(trifluoromethyl)-[1,1′-biphenyl]-4-yl)oxazol-2-yl)methyl)acrylamide]
[1]; Homo sapiens
  IC50: < 1000 nM
[2]; [4]
  IC50: < 1000 nM
[3]; Mus musculus, NIH3T3
  IC50: 1000 to 5000 nM

## Nc1ccc(/C=C/C(=O)NCc2ccc(-c3c(C(F)(F)F)cc(-c4ccc(C(=O)N5CC(F)(F)C5)cn4)cc3C(F)(F)F)o2)cn1 [Compound A025, (E)-3-(6-aminopyridin-3-yl)-N-((5-(4-(5-(3,3-difluoroazetidine-1-carbonyl)pyridin-2-yl)-2,6-bis(trifluoromethyl)phenyl)furan-2-yl)methyl)acrylamide]
[1]; Homo sapiens
  IC50: < 1000 nM
[2]; [4]
  IC50: < 1000 nM
[3]; Mus musculus, NIH3T3
  IC50: < 1000 nM

## Nc1ccc(/C=C/C(=O)NCc2ccc(-c3cc4cc(C(=O)N5CCC(F)(F)CC5)cnc4cc3C(F)(F)F)o2)cn1 [Compound A026, (E)-3-(6-aminopyridin-3-yl)-N-((5-(3-(4,4-difluoropiperidine-1-carbonyl)-7-(trifluoromethyl)quinolin-6-yl)furan-2-yl)methyl)acrylamide]
[1]; Homo sapiens
  IC50: < 1000 nM
[2]; [4]
  IC50: < 1000 nM
[3]; Mus musculus, NIH3T3
  IC50: 1000 to 5000 nM

## Cn1c(CNC(=O)/C=C/c2ccc(N)nc2)ccc1-c1ccc(-c2ccc(C(=O)N3CCC(F)(F)CC3)cc2)cc1-c1ccc(F)cc1 [Compound A-012, (E)-3-(6-aminopyridin-3-yl)-N-((5-(4-(4,4-difluoropiperidine-1-carbonyl)-4″-fluoro-[1,1′:3′,1″-terphenyl]-4′-yl)-1-methyl-1H-pyrrol-2-yl)methyl)acrylamide]
[1]; Homo sapiens
  IC50: > 10000 nM
[2]; [4]
  IC50: > 10000 nM
[3]; Mus musculus, NIH3T3
  IC50: > 10000 nM

## (E)-3-(6-aminopyridin-3-yl)-N-((5-(1-chloro-6-(4,4-difluoropiperidine-1-carbonyl)naphthalen-2-yl)furan-2-yl)methyl)acrylamide [Compound A004]
[1]
  IC50: < 1000 nM
[2]; [5]
  IC50: < 1000 nM
[3]
  IC50: > 10000 nM

## (E)-(4′-(2′-(2-(6-aminopyridin-3-yl)vinyl)-5,5′-bioxazol-2-yl)-3′-(trifluoromethyl)biphenyl-4-yl)(3,3-difluoroazetidin-1-yl)methanone [Compound A027]
[1]
  IC50: > 10000 nM
[2]; [5]
  IC50: > 10000 nM
[3]
  IC50: > 10000 nM
